Columns and labels:
[1] = system: HIV-1 clinical isolated, characterised by mutations on the protease gene inducing geno-phenotypic resistance to NFV; assay: p24 production susceptibility test (ACTG protocol), Table 10, PBMC; type: cell-based; details: ratio to HIV-IIIB
Source text: (§1) For the phenotype of the nucleosidic, non-nucleosidic and proteases inhibitors was utilised a method which consider the use of human PBMC and the protocol standardised by the AIDS Clinical Trials Group, after verifying the genotype by sequence analysis.
(§2) In order to assay in vitro the susceptibility to chloroquine and hydroxychloroquine of the viral strains, it was used the protocol of the ACTG which is characterised by the measure, of the production of antigen p24 in strongly infected cells.
(§3) The susceptibility of the viral strains to chemotherapics was determined in cell cultures, prepared in 96 wells microplates, using, for the infection, 0.1 MOI.
(§4) The supernatant of the infected cultures (either in absence or in presence of different concentrations of chemotherapic) were tested for the production of p24 after 7 days, using an ELISA test which is commercially available.
(§5) The concentrations of chloroquine and hydroxychloroquine tested ranged from 0.5 to 15 uM. At the same time non-infected cells were incubated with concentrations of chloroquine and hydroxychloroquine ranging from 0 to 50 uM to evaluate the toxicity of the compound.
(§6) After 4 day from the infection, half the cellular medium was replaced with a medium containing the corresponding dilution of chloroquine and hydroxychloroquine. The percentage of inhibition of the HIV replication, induced by chloroquine and hydroxychloroquine, was determined, after 7 day from the infection, comparing the levels of p24 of this cultures and that of the control, infected and not treated with chloroquine and hydroxychloroquine.
(§7) Therefore, the E.C.50 of chloroquine and hydroxychloroquine expresses the concentration of chemotherapic that inhibits the 50% of production of p24 and the values were calculated using linear and non linear regression analysis (the significativity for the non linear regression was R^2>0.95).
(§8) In the same experimental conditions and in the same day, but with similar concentrations of chloroquine and hydroxychloroquine, it was evaluated the vitality of the infect cell cultures, and this was expressed as I.C.50.
(§9) I.C.50 (Inhibitory Concentration) indicates the concentration of the chemotherapic agent inhibiting the vitality of the cell cultures at a rate of 50%, when there is not infection.

[2] = system: HIV-1 clinical isolated, characterised by mutations on the protease gene inducing geno-phenotypic resistance to NFV; assay: p24 production susceptibility test, Table 10, H-9 cells; type: cell-based; details: H-9, ratio to HIV-IIIB
Source text: as §1, §2, §3, §4, §5, §6, §7, §8, §9

[3] = system: HIV-1 clinical isolated, characterised by mutations in the RT gene inducing geno-phenotypic resistance to d4T; assay: p24 production susceptibility test (ACTG protocol), Table 4; type: cell-based; details: PBMC, ratio to HIV-IIIB
Source text: as §1, §2, §3, §4, §5, §6, §7, §8, §9

[4] = system: HIV; details: 16 weeks, cited from earlier work
[5] = system: HIV clinical isolated, characterised by mutations in the RT gene inducing geno-phenotypic resistance to AZT; assay: p24 production susceptibility test (ACTG protocol), Table 1; type: cell-based, HIV-1; details: PBMC, ratio to HIV-IIIB
Source text: as §1, §2, §3, §4, §5, §6, §7, §8, §9

[6] = system: HIV clinical isolated, characterised by mutations in the RT gene inducing geno-phenotypic resistance to ddI; assay: p24 production susceptibility test (ACTG protocol), Table 2; type: cell-based, HIV-1; details: PBMC, ratio to HIV-IIIB
Source text: as §1, §2, §3, §4, §5, §6, §7, §8, §9

[7] = system: HIV-1 clinical isolated, characterised by mutations in the protease gene inducing geno-phenotypic resistance to IDV; assay: p24 production susceptibility test (ACTG protocol), Table 9; type: cell-based; details: PBMC, ratio to HIV-IIIB
Source text: as §1, §2, §3, §4, §5, §6, §7, §8, §9

[8] = system: HIV-1 strains geno-phenotypically resistant to NVP; assay: p24 production susceptibility test, Table 6, MT-2 cells; type: cell-based; details: ratio to HIV-IIIB
[9] = system: HIV-1 strains geno-phenotypically resistant to NVP; assay: as above; type: cell-based; details: MT-2, ratio to HIV-IIIB
Source text: as §1, §2, §3, §4, §5, §6, §7, §8, §9

[10] = system: HIV-1 strains geno-phenotypically resistant to EFV; assay: p24 production susceptibility test, Table 7, MT-2 cells; type: cell-based; details: MT-2, ratio to HIV-IIIB
Source text: as §1, §2, §3, §4, §5, §6, §7, §8, §9

[11] = system: HIV-1 strains geno-phenotypically resistant to EFV; assay: as above; type: cell-based; details: ratio to HIV-IIIB
[12] = system: HIV-1 clinical isolated, characterised by mutations in the protease gene inducing geno-phenotypic resistance to SQV; assay: p24 production susceptibility test (ACTG protocol), Table 8; type: cell-based; details: PBMC, ratio to HIV-IIIB
Source text: as §1, §2, §3, §4, §5, §6, §7, §8, §9

[13] = system: HIV-1 clinical isolated, characterised by mutations in the RT gene inducing geno-phenotypic resistance to ABC; assay: p24 production susceptibility test (ACTG protocol), Table 5; type: cell-based; details: PBMC, ratio to HIV-IIIB
Source text: as §1, §2, §3, §4, §5, §6, §7, §8, §9

For Cc1c(O)cccc1C(=O)N[C@@H](CSc1ccccc1)[C@H](O)CN1C[C@H]2CCCC[C@H]2C[C@H]1C(=O)NC(C)(C)C [NFV, Nelfinavir], the “Fen. NFV (fold)” value ([1]; Gen. D30N A71V) was 30X fold, the “Fen. NFV (fold)” value ([1]; Gen. D30N M46V A71V) was 30X fold and the “Fen. NFV (fold)” value ([1]; Gen. G48V V92A) was >80X fold. For the same compound, the “Fen. NFV (fold)” value ([1]; Gen. V82F L90M) was >80X fold, the “Fen. NFV (fold)” value ([2]; Gen. D30N) was 30X fold and the “Fen. NFV (fold)” value ([2]; Gen. V82A) was 20X fold.

For Cc1cn([C@H]2C=C[C@@H](CO)O2)c(=O)[nH]c1=O [D4T, Stavudine], the “Fen. D4T (fold)” value ([3]; Gen. K65R F77L Y115F Q151M M184V) was 40X fold, the “Fen. D4T (fold)” value ([3]; Gen. K65R F116Y Q151M) was 40X fold and the “Fen. D4T (fold)” value ([3]; Gen. M41I T69SSS T215Y) was 10X fold. For the same compound, the “Fen. D4T (fold)” value ([3]; Gen. T69SSS T215Y) was 10X fold and the “Fen. D4T (fold)” value ([3]; Gen. V75I F77L F116Y Q151M) was 20X fold.

In the case of Cc1cn([C@H]2C[C@H](N=[N+]=[N-])[C@@H](CO)O2)c(=O)[nH]c1=O [AZT, Zidovudine], the negative events ([4]; hydroxychloroquine 800 mg/day, AZT 500 mg/day) is listed as “no negative events were observed”, the “patients with an increase of the plasmatic viremia at the end of the treatment” value ([4]; AZT 500 mg/day (n=37)) is listed as 8 patients and the “Fen AZT (fold)” value ([5]; Gen. D67N K70R T215F K219Q) is listed as 20X fold. For the same compound, the “Fen AZT (fold)” value ([5]; Gen. D 67 Ns K 70N T215F K219Q) was >80X fold, the “Fen AZT (fold)” value ([5]; Gen. K70R T215F K219Q) was 20X fold and the “Fen AZT (fold)” value ([5]; Gen. M41I M184V L210W R221K T215Y) was 20X fold. The “Fen AZT (fold)” value ([5]; Gen. M41I T215Y) was 40X fold, the “Fen AZT (fold)” value ([5]; Gen. M41L D67N K70RM 184V T215F) was >80X fold and the “Fen AZT (fold)” value ([5]; Gen. M41LD 76N K70R T215Y) was >80X fold. The “Fen. AZT (fold)” value ([6]; Gen D67N K70R M184V T215Y) was 40X fold, the “Fen. AZT (fold)” value ([6]; Gen D67N K70R T215F K70R) was >80X fold and the “Fen. AZT (fold)” value ([6]; Gen K70R T215F K219Q) was 20X fold. The “Fen. AZT (fold)” value ([6]; Gen M4IL M184V L210W R211KL 214F T215Y) was 20X fold, the “Fen. AZT (fold)” value ([6]; Gen M41I T215F) was 40X fold and the “Fen. AZT (fold)” value ([6]; Gen M41L D67N K70R M184V T215Y) was >80X fold. For the same compound, the “Fen. AZT (fold)” value ([6]; Gen M41L D67N K70R T215Y) was >80X fold.

For CC(C)(C)NC(=O)[C@@H]1CN(Cc2cccnc2)CCN1C[C@@H](O)C[C@@H](Cc1ccccc1)C(=O)N[C@H]1c2ccccc2C[C@H]1O [IDV, Indinavir], the “Fen. IDV (fold)” value ([7]; Gen. G48V V82A) was >80X fold, the “Fen. IDV (fold)” value ([7]; Gen. I84V L90M) was 20X fold and the “Fen. IDV (fold)” value ([7]; Gen. K20R E35D M36I I54V V82T) was 10X fold. The “Fen. IDV (fold)” value ([7]; Gen. L10R M46I L63P V82T) was 10X fold and the “Fen. IDV (fold)” value ([7]; Gen. V82F L90M) was >80X fold.

With Cc1ccnc2c1NC(=O)c1cccnc1N2C1CC1 [NVP, Nevirapine] the “Fen. NVP (fold)” value ([8]; Gen. K103N) was >80X fold, the “Fen. NVP (fold)” value ([8]; Gen. Y181C) was >80X fold and the “Fen. NVP (fold)” value ([9]; Gen. G190E) was >80X fold. The “Fen. NVP (fold)” value ([9]; Gen. V106A) was >80X fold.

In the case of O=C1Nc2ccc(Cl)cc2[C@@](C#CC2CC2)(C(F)(F)F)O1 [EFV, Efavirenz], the “Fen. EFV (fold)” value ([10]; Gen. K101D K103N) was >80X fold, the “Fen. EFV (fold)” value ([10]; Gen. K103N Y181C) was >80X fold and the “Fen. EFV (fold)” value ([10]; Gen. L100I K103N) was >80X fold. The “Fen. EFV (fold)” value ([11]; Gen. K103N V108D) was >80X fold, the “Fen. EFV (fold)” value ([11]; Gen. K103N) was >80X fold and the “Fen. EFV (fold)” value ([11]; Gen. Y181C) was 20X fold.

For CC(C)(C)NC(=O)[C@@H]1C[C@@H]2CCCC[C@@H]2CN1C[C@@H](O)[C@H](Cc1ccccc1)NC(=O)[C@H](CC(N)=O)NC(=O)c1ccc2ccccc2n1 [SQV, Saquinavir], the “Fen. SQV (fold)” value ([12]; Gen. G48V I84V A74V L90M) was 40X fold, the “Fen. SQV (fold)” value ([12]; Gen. G48V V82A) was >80X fold and the “Fen. SQV (fold)” value ([12]; Gen. I84V L90M) was >80X fold. The “Fen. SQV (fold)” value ([12]; Gen. M46I G48V L63P L90M) was 20X fold and the “Fen. SQV (fold)” value ([12]; Gen. V82A L90M) was 20X fold.

With Nc1nc(NC2CC2)c2ncn([C@H]3C=C[C@@H](CO)C3)c2n1 [ABC, Abacavir] the “Fen. ABC (fold)” value ([13]; Gen. K65R L74V M184V) was 10X fold, the “Fen. ABC (fold)” value ([13]; Gen. K65R S68G F77L Y115F Q151M M184V) was 40X fold and the “Fen. ABC (fold)” value ([13]; Gen. L74V M184F) was 10X fold. For the same compound, the “Fen. ABC (fold)” value ([13]; Gen. L74V Y115F M184V) was 10X fold and the “Fen. ABC (fold)” value ([13]; Gen. M41L D67N M184V L210W T215Y) was 10X fold.
